Experimental data from US9138457B2, “Therapeutic modulation of ocular surface lubrication” (THE REGENTS OF THE UNIVERSITY OF CALIFORNIA, priority 2008, dated 2015).
Read-outs that look alike come from different tables or passages of the source.

Test system: PRG4 mRNA
Conditions: primary human corneal epithelial cells; for increase in PRG4 mRNA levels relative to the control levels at Day 0: 10 nM DHT
Description: (§1) Cells were grown in keratinocyte serum free media until reaching about 80% confluence. Cells (n=3 wells/treatment/experiment) were then incubated with either vehicle or 10 nM dihydrotestosterone (DHT) for up to 5 days. At designated times cells were processed for total RNA isolation and analysis of PRG4 mRNA mRNA by RT-PCR.
as §1, with “Methods. Cells were” for “Cells were”, “by RT-PCR. Results.” for “by RT-PCR.”

## C[C@]12CCC(=O)C[C@@H]1CC[C@@H]1[C@@H]2CC[C@]2(C)[C@@H](O)CC[C@@H]12 [DHT, dihydrotestosterone]
3 days of hormone exposure
  increase in PRG4 mRNA levels relative to the control levels at Day 0: 10.3 fold
4 days of hormone exposure
  increase in PRG4 mRNA levels relative to the control levels at Day 0: 3.6 fold
5 days of hormone exposure
  increase in PRG4 mRNA levels relative to the control levels at Day 0: 2.8 fold
Another experiment, treatment of cells for 5 days with DHT
  increase in PRG4 mRNA content relative to that of vehicle-treated controls: 46 fold
